# Measured values reported in patent US20230203081A1, “LINCOSAMIDE ANTIBIOTICS AND USES THEREOF” (President and Fellows of Harvard College, priority 2020, published 2023).
# Key:
# Format in all cases: cell-based
# [1] = tested on: S. aureus ATCC 700699; experiment: MIC (broth microdilution or agar dilution, CLSI); settings: Staphylococcus aureus; S. aureus HAV#202, ATCC 700699 (VISA); read-out: MIC
# How it was run: (§1)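 Isolates other than streptococci and anaerobes, which had their own procedures, were grown overnight at 35° C on tryptic soy agar with 5% sheep blood. Suspensions were then diluted to a final inoculum of 5×10^5 CFU/mL in broth microdilution wells.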
# [2] = tested on: S. pyogenes MMX 946; cErmB; experiment: MIC (broth microdilution or agar dilution, CLSI); settings: Streptococcus pyogenes; S. pyogenes HAV#035, MMX 946; cErmB, mac-resistant; read-out: MIC
# How it was run: as §1
# [3] = tested on: S. pyogenes ATCC 19615; experiment: MIC (broth microdilution or agar dilution, CLSI); settings: Streptococcus pyogenes, ATCC19615, S. pyogenes HAV#004, ATCC 19615; read-out: MIC
# How it was run: as §1
# [4] = tested on: S. pneumoniae MMX 3028 cErmB; experiment: MIC (broth microdilution or agar dilution, CLSI); settings: Streptococcus pneumoniae, MMX3028CERMB; S. pneumoniae HAV#033; MMX 3028, cErmB; read-out: MIC
# How it was run: as §1
# [5] = tested on: S. pneumoniae ATCC 6303; experiment: MIC (broth microdilution or agar dilution, CLSI); settings: Streptococcus pneumoniae, ATCC6303; S. pneumoniae HAV#351, ATCC 6303; read-out: MIC
# How it was run: as §1
# [6] = tested on: S. pneumoniae ATCC 49619; experiment: MIC (broth microdilution or agar dilution, CLSI); settings: Streptococcus pneumoniae, ATCC49619, S. pneumoniae HAV#003, ATCC 49619; read-out: MIC
# How it was run: as §1
# [7] = tested on: S. pneumoniae MMX 3031 cMefA; experiment: MIC (broth microdilution or agar dilution, CLSI); settings: Streptococcus pneumoniae, MMX3031CMEFA, S. pneumoniae HAV#034; MMX 3031, cMefA; read-out: MIC
# How it was run: as §1
# [8] = tested on: S. aureus ATCC 29213; experiment: MIC (broth microdilution or agar dilution, CLSI); settings: Staphylococcus aureus, ATCC29213, S. aureus HAV#001, ATCC 29213, MP-549; read-out: MIC
# How it was run: as §1
# [9] = tested on: S. aureus ATCC BAA-1707 (MRSA); experiment: MIC (broth microdilution or agar dilution, CLSI); settings: Staphylococcus aureus; S. aureus HAV#016, ATCC BAA-1707; MRSA; read-out: MIC
# How it was run: as §1
# [10] = tested on: E. faecalis MMX 847; cErmB; experiment: MIC (broth microdilution or agar dilution, CLSI); settings: Enterococcus faecalis; E. faecalis HAV#036, MMX 847; mac-resistant, cErmB; read-out: MIC
# How it was run: as §1
# [11] = tested on: S. aureus MMX 3035 cErmA; experiment: MIC (broth microdilution or agar dilution, CLSI); settings: Staphylococcus aureus, MMX3035CERMA; S. aureus HAV#031, MMX 3035; cErmA; read-out: MIC
# How it was run: as §1
# [12] = tested on: S. aureus MP-549 msrA; experiment: microbe, parasite or virus in culture; settings: Staphylococcus aureus, MP549MSRA; S. aureus HAV#032, MP-549; MSR(A); read-out: MIC
# How it was run: as §1
# [13] = tested on: S. aureus BAA 977 iErmA; experiment: microbe, parasite or virus in culture; settings: Staphylococcus aureus, BAA-977 / MRSA
# How it was run: as §1
# [14] = tested on: broad panel of different clinical isolates; experiment: microbe, parasite or virus in culture
# How it was run: as §1
smiles,measurement,setting,value
C[C@H]1c2cccc(O)c2C(=O)C2=C(O)[C@]3(O)C(=O)C(C(N)=O)=C(O)[C@@H](N(C)C)[C@@H]3[C@@H](O)[C@@H]21 [Doxycycline],MIC,[1],16 µg/mL
same,MIC,[2],0.125 µg/mL
same,MIC,[3],0.125 µg/mL
same,MIC,[4],1 µg/mL
same,MIC,[5],0.125 µg/mL
same,MIC,[6],0.125 µg/mL
same,MIC,[7],0.125 µg/mL
same,MIC,[8],0.25 µg/mL
same,MIC,[9],0.25 µg/mL
same,MIC,[10],16 µg/mL
same,MIC,[11],0.25 µg/mL
same,MIC,[12],8 µg/mL
same,MIC,[13],0.25 µg/mL
same,MIC,"[14]; Acinetobacter baumannii, A. baumannii HAV#651, Clinical",0.125 µg/mL
same,MIC,"[14]; Acinetobacter baumannii, A. baumannii HAV#652 Clinical",0.5 µg/mL
same,MIC,"[14]; Acinetobacter baumannii, A. baumannii HAV#653, Clinical",0.125 µg/mL
same,MIC,"[14]; Acinetobacter baumannii, A. baumannii HAV#654, Clinical",< 0.06 µg/mL
same,MIC,"[14]; Acinetobacter baumannii, A. baumannii HAV#655, Clinical",0.5 µg/mL
same,MIC,"[14]; Acinetobacter baumannii, A. baumannii HAV#656, Clinical",32 µg/mL
same,MIC,"[14]; Acinetobacter baumannii, A. baumannii HAV#657, Clinical",0.5 µg/mL
same,MIC,"[14]; Acinetobacter baumannii, A. baumannii HAV#658, Clinical",0.06 µg/mL
same,MIC,"[14]; Acinetobacter baumannii, A. baumannii HAV#659, Clinical",0.5 µg/mL
same,MIC,"[14]; Acinetobacter baumannii, A. baumannii HAV#660, Clinical",1 µg/mL
same,MIC,"[14]; Acinetobacter baumannii, A. baumannii HAV#661, Clinical",0.125 µg/mL
same,MIC,"[14]; Acinetobacter baumannii, A. baumannii HAV#662, Clinical",0.25 µg/mL
same,MIC,"[14]; Acinetobacter baumannii, A. baumannii HAV#663, Clinical",0.125 µg/mL
same,MIC,"[14]; Acinetobacter baumannii, A. baumannii HAV#664, Carbapenem R",2 µg/mL
same,MIC,"[14]; Enterococcus faecalis, E. faecalis HAV#602, Clincal",0.25 µg/mL
same,MIC,"[14]; Enterococcus faecalis, E. faecalis HAV#607, Clinical",1 µg/mL
same,MIC,"[14]; Enterococcus faecalis, E. faecalis HAV#608, Clinical",0.5 µg/mL
same,MIC,"[14]; Enterococcus faecalis, E. faecalis HAV#609, Clinical",8 µg/mL
same,MIC,"[14]; Enterococcus faecalis, E. faecalis HAV#610, Clinical",0.5 µg/mL
same,MIC,"[14]; Enterococcus faecalis, S. faecalis 5074, Line R",64 µg/mL
same,MIC,"[14]; Enterococcus faecalis, VRE, E. faecalis HAV#251, Clinical VRE",0.125 µg/mL
same,MIC,"[14]; Enterococcus faecalis, VRE, E. faecalis HAV#606, Clinical",16 µg/mL
same,MIC,"[14]; Enterococcus faecium, E. faecium HAV#317, Clinical",0.25 µg/mL
same,MIC,"[14]; Enterococcus faecium, E. faecium HAV#324, Clinical",0.25 µg/mL
same,MIC,"[14]; Enterococcus faecium, E. faecium HAV#327, Clinical",0.25 µg/mL
same,MIC,"[14]; Enterococcus faecium, E. faecium HAV#328, Clinical",0.25 µg/mL
same,MIC,"[14]; Enterococcus faecium, E. faecium HAV#329, Clinical",0.25 µg/mL
same,MIC,"[14]; Enterococcus faecium, VRE, E. faecium HAV#318, VanA",4 µg/mL
same,MIC,"[14]; Enterococcus faecium, VRE, E. faecium HAV#319, Line R & Vanco R",16 µg/mL
same,MIC,"[14]; Enterococcus faecium, VRE, E. faecium HAV#320, Clinical",> 128 µg/mL
same,MIC,"[14]; Escherichia coli, E. coli HAV#503, Clinical",32 µg/mL
same,MIC,"[14]; Escherichia coli, E. coli HAV#511, Clinical",2 µg/mL
same,MIC,"[14]; Escherichia coli, E. coli HAV#512, Clinical",2 µg/mL
same,MIC,"[14]; Escherichia coli, E. coli HAV#513, Clinical",32 µg/mL
same,MIC,"[14]; Escherichia coli, E. coli HAV#514, Clinical",2 µg/mL
same,MIC,"[14]; Escherichia coli, E. coli HAV#516, ESBL-producing",8 µg/mL
same,MIC,"[14]; Haemophilus influenzae, ATCC9007, H. influenzae HAV#376, ATCC-9007",0.25 µg/mL
same,MIC,"[14]; Klebsiella pneumoniae, K. pneumoniae HAV#404, Clinical",4 µg/mL
same,MIC,"[14]; Klebsiella pneumoniae, K. pneumoniae HAV#405, Clinical",2 µg/mL
same,MIC,"[14]; Klebsiella pneumoniae, K. pneumoniae HAV#406, Clinical",2 µg/mL
same,MIC,"[14]; Klebsiella pneumoniae, K. pneumoniae HAV#407, Clinical",32 µg/mL
same,MIC,"[14]; Klebsiella pneumoniae, K. pneumoniae HAV#408, Clinical",32 µg/mL
same,MIC,"[14]; Klebsiella pneumoniae, K. pneumoniae HAV#409, ESBL-producing",16 µg/mL
same,MIC,"[14]; Staphylococcus aureus, MRSA, S. aureus HAV#0107, MRSA Col(Colindale, England)",64 µg/mL
same,MIC,"[14]; Staphylococcus aureus, MRSA, S. aureus HAV#218, Line R",16 µg/mL
same,MIC,"[14]; Staphylococcus aureus, MRSA, S. aureus HAV#220, Line R",8 µg/mL
same,MIC,"[14]; Staphylococcus aureus, MSSA, S. aureus HAV#219, Line R",1 µg/mL
same,MIC,"[14]; Staphylococcus aureus, S. aureus HAV#051, mecA, norA, spcl, ermA, aad1, aac6′-aph2″",0.5 µg/mL
same,MIC,"[14]; Staphylococcus aureus, S. aureus HAV#052, mecA, norA, fosB, blaZ",0.5 µg/mL
same,MIC,"[14]; Staphylococcus aureus, S. aureus HAV#053 mecA, norA, fosB",0.5 µg/mL
same,MIC,"[14]; Staphylococcus aureus, S. aureus HAV#054, mecA, norA, spcl, aad1, fosB, ermA, aac6′-aph2″, blaZ",2 µg/mL
same,MIC,"[14]; Staphylococcus aureus, S. aureus HAV#211, Clinical",4 µg/mL
same,MIC,"[14]; Staphylococcus aureus, S. aureus HAV#212, Clinical",0.25 µg/mL
same,MIC,"[14]; Staphylococcus aureus, S. aureus HAV#213, Clinical",0.125 µg/mL
same,MIC,"[14]; Staphylococcus aureus, S. aureus HAV#214, Clinical",0.25 µg/mL
same,MIC,"[14]; Staphylococcus aureus, S. aureus HAV#215, Clinical",0.25 µg/mL
same,MIC,"[14]; Staphylococcus aureus, S. aureus HAV#216, Clinical, cfr",0.25 µg/mL
same,MIC,"[14]; Staphylococcus aureus, S. aureus HAV#217, cfr",4 µg/mL
same,MIC,"[14]; Staphylococcus aureus, VISA, S. aureus HAV#203, Clinical (VISA)",8 µg/mL
same,MIC,"[14]; Staphylococcus epidermidis, S. epidermidis HAV# 275 Clinical, cfr",1 µg/mL
same,MIC,"[14]; Staphylococcus epidermidis, S. epidermidis HAV# 276, cfr",2 µg/mL
same,MIC,"[14]; Staphylococcus epidermidis, S. epidermidis HAV#277, Line R",8 µg/mL
same,MIC,"[14]; Staphylococcus epidermidis, S. epidermidis HAV#278 Line R",4 µg/mL
same,MIC,"[14]; Staphylococcus epidermidis, S. epidermidis HAV#279, Line R",32 µg/mL
same,MIC,"[14]; Staphylococcus haemolyticus, S. haemolyticus 5052, Line R & Methicillin R",4 µg/mL
same,MIC,"[14]; Streptococcus pneumoniae, ATCC700673, S. pneumoniae HAV#352, ATCC 700673, MDR",4 µg/mL
same,MIC,"[14]; Streptococcus pneumoniae, ATCCBAA255, S. pneumoniae HAV#354, ATCC-BAA-255",0.25 µg/mL
same,MIC,"[14]; Streptococcus pneumoniae, ATCCBAA334, S. pneumoniae HAV#353, ATCC-BAA-334",0.25 µg/mL
same,MIC,"[14]; Streptococcus pneumoniae, S. pneumoniae HAV#356, Clinical",2 µg/mL
same,MIC,"[14]; Streptococcus pneumoniae, S. pneumoniae HAV#358, Clinical",0.25 µg/mL
